According to the kinase profiling compilation of Christmann-Franck et al. (2016):
One block for each molecule: values may come before it.

Assays:
MAPK15 (human) = MAPK15 (human) (UniProt Q8TD08); assay: KINOMEscan competition binding; conditions: compound 10.0 µM
PIM1 (human) [1] = biological target: PIM1 (human) (UniProt P11309); assay: KINOMEscan competition binding; conditions: compound 10.0 µM
GSK3A (human) = GSK3A (human) (UniProt P49840); assay: KINOMEscan competition binding; conditions: compound 10.0 µM
DAPK3 (human) = DAPK3 (human) (UniProt O43293); assay: KINOMEscan competition binding; conditions: compound 10.0 µM
CDK7 (human) = CDK7 (human) (UniProt P50613); assay: KINOMEscan competition binding; conditions: compound 10.0 µM
DAPK2 (human) = DAPK2 (human) (UniProt Q9UIK4); assay: KINOMEscan competition binding; conditions: compound 10.0 µM
CLK4 (human) = CLK4 (human) (UniProt Q9HAZ1); assay: KINOMEscan competition binding; conditions: compound 10.0 µM
TGFBR2 (human) = TGFBR2 (human) (UniProt P37173); assay: KINOMEscan competition binding; conditions: compound 10.0 µM
MAP2K3 (human) = MAP2K3 (human) (UniProt P46734); assay: KINOMEscan competition binding; conditions: compound 10.0 µM
MAP2K3 (human), sequence (P46734 whole entry, looked up): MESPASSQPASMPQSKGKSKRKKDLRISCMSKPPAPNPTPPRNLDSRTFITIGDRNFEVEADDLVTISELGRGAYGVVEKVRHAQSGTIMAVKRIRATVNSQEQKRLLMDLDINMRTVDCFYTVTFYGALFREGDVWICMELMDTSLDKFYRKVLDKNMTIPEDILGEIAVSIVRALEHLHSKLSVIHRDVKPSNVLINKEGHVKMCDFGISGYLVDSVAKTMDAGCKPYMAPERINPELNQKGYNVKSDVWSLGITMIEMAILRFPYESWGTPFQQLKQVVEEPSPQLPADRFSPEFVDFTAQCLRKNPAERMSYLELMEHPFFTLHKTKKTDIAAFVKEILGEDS

[2] = biological target: TYK2 JH2 pseudokinase (human) (UniProt P29597); assay: KINOMEscan competition binding; conditions: compound 10.0 µM
TAOK3 (human) = TAOK3 (human) (UniProt Q9H2K8); assay: KINOMEscan competition binding; conditions: compound 10.0 µM
TAOK1 (human) = TAOK1 (human) (UniProt Q7L7X3); assay: KINOMEscan competition binding; conditions: compound 10.0 µM
TAOK1 (human), sequence (Q7L7X3 whole entry, looked up): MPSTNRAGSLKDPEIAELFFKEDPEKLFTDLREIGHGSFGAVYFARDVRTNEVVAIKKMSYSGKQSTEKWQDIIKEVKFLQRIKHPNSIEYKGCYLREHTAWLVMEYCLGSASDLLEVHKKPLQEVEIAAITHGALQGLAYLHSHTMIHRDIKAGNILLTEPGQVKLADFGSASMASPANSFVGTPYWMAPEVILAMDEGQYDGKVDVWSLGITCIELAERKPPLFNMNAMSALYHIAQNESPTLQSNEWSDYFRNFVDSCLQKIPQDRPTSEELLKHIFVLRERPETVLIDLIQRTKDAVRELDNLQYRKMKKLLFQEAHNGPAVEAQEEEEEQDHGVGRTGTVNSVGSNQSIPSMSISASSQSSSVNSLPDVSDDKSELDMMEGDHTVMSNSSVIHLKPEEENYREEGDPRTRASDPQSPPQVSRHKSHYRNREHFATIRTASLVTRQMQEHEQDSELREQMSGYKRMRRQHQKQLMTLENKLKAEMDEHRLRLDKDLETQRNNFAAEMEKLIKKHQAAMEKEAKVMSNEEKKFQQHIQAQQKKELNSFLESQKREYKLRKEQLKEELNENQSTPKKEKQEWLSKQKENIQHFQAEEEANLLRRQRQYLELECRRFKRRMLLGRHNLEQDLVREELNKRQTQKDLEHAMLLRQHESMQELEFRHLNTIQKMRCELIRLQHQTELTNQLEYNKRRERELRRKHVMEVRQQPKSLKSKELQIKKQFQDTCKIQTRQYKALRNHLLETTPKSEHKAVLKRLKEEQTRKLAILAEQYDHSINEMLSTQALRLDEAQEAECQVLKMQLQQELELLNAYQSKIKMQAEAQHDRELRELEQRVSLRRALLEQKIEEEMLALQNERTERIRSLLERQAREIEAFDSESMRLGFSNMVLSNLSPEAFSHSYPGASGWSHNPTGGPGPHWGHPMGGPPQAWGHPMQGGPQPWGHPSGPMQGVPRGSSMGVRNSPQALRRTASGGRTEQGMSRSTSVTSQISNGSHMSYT

IKBKB (human) = IKBKB (human) (UniProt O14920); assay: KINOMEscan competition binding; conditions: compound 10.0 µM
DAPK1 (human) = DAPK1 (human) (UniProt P53355); assay: KINOMEscan competition binding; conditions: compound 10.0 µM
CLK2 (human) = CLK2 (human) (UniProt P49760); assay: KINOMEscan competition binding; conditions: compound 10.0 µM
CDK16 (human) = CDK16 (human) (UniProt Q00536); assay: KINOMEscan competition binding; conditions: compound 10.0 µM
CDK16 (human), sequence (Q00536 whole entry, looked up): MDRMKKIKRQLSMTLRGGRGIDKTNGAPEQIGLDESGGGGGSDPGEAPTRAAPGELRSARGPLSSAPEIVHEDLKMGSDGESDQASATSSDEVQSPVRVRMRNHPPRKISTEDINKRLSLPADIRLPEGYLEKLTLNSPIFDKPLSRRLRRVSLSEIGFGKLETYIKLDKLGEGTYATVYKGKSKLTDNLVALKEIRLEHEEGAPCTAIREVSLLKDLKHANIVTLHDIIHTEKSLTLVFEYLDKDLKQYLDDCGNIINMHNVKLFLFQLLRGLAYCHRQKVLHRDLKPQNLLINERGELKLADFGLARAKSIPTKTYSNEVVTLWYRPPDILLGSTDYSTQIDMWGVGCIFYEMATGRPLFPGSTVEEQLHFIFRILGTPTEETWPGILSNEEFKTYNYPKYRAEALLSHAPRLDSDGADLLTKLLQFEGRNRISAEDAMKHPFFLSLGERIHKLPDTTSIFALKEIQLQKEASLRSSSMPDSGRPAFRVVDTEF

PIM2 (human) [3] = biological target: PIM2 (human) (UniProt Q9P1W9); assay: KINOMEscan competition binding; conditions: compound 10.0 µM
PIM2 (human), sequence (Q9P1W9 whole entry, looked up): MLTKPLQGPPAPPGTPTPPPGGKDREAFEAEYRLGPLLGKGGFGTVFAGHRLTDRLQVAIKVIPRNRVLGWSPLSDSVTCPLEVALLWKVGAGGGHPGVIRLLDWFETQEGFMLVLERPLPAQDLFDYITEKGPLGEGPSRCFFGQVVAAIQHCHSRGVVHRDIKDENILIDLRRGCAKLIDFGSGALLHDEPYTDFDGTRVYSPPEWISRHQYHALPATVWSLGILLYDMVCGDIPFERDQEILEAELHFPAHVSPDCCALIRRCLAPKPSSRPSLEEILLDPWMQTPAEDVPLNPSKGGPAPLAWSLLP

PIM3 (human) = PIM3 (human) (UniProt Q86V86); assay: KINOMEscan competition binding; conditions: compound 10.0 µM
DYRK1B (human) = DYRK1B (human) (UniProt Q9Y463); assay: KINOMEscan competition binding; conditions: compound 10.0 µM
STK17A (human) = STK17A (human) (UniProt Q9UEE5); assay: KINOMEscan competition binding; conditions: compound 10.0 µM
CHUK (human) = CHUK (human) (UniProt O15111); assay: KINOMEscan competition binding; conditions: compound 10.0 µM
CLK1 (human) = CLK1 (human) (UniProt P49759); assay: KINOMEscan competition binding; conditions: compound 10.0 µM
CLK1 (human), sequence (P49759 whole entry, looked up): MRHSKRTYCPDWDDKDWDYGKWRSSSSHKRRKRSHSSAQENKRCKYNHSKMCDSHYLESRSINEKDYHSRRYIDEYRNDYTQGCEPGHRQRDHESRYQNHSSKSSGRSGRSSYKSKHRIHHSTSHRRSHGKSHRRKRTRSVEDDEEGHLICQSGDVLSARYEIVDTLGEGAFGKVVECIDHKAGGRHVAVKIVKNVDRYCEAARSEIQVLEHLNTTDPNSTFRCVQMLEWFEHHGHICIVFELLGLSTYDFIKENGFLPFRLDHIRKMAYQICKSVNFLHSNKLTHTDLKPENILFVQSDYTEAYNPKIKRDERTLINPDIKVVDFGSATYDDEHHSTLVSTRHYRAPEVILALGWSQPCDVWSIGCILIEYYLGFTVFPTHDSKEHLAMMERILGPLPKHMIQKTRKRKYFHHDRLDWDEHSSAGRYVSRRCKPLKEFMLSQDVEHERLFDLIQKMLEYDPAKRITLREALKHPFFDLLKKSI

STK17B (human) = STK17B (human) (UniProt O94768); assay: KINOMEscan competition binding; conditions: compound 10.0 µM
PLK4 (human) = PLK4 (human) (UniProt O00444); assay: KINOMEscan competition binding; conditions: compound 10.0 µM
HIPK1 (human) = HIPK1 (human) (UniProt Q86Z02); assay: KINOMEscan competition binding; conditions: compound 10.0 µM
HIPK1 (human), sequence (Q86Z02 whole entry, looked up): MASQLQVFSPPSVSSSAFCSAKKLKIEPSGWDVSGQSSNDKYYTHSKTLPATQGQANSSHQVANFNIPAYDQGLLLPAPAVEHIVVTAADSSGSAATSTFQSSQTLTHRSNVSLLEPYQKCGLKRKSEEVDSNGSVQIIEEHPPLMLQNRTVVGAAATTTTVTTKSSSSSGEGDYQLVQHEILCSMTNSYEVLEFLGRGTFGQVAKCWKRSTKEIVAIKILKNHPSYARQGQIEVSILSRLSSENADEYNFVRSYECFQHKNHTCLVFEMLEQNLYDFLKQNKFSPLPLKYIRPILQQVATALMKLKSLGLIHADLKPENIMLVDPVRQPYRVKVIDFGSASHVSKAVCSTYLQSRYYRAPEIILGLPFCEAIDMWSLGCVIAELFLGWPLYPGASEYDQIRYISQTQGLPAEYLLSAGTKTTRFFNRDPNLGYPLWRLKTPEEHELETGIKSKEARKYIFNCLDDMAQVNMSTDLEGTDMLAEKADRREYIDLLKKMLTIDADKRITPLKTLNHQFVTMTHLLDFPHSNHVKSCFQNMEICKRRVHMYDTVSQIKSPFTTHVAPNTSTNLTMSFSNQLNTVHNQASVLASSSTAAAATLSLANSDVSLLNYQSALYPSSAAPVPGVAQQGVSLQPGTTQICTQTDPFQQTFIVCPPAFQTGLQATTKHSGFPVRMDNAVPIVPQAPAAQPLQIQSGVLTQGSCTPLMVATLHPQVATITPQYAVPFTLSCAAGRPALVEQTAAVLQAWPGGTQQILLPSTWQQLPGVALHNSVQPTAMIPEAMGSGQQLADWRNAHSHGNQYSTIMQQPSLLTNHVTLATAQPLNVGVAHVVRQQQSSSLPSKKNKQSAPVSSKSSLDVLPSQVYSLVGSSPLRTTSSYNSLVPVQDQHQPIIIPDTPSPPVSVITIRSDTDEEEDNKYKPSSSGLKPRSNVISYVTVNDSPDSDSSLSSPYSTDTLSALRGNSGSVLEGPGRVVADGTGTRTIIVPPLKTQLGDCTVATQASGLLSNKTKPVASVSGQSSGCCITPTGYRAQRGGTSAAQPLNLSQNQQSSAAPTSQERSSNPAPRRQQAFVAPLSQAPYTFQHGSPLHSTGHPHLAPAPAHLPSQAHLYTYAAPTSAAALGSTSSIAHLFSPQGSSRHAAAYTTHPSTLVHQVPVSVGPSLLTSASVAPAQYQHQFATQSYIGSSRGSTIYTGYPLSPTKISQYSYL

GSK3B (human) = GSK3B (human) (UniProt P49841); assay: KINOMEscan competition binding; conditions: compound 10.0 µM
GSK3B (human), sequence (P49841 whole entry, looked up): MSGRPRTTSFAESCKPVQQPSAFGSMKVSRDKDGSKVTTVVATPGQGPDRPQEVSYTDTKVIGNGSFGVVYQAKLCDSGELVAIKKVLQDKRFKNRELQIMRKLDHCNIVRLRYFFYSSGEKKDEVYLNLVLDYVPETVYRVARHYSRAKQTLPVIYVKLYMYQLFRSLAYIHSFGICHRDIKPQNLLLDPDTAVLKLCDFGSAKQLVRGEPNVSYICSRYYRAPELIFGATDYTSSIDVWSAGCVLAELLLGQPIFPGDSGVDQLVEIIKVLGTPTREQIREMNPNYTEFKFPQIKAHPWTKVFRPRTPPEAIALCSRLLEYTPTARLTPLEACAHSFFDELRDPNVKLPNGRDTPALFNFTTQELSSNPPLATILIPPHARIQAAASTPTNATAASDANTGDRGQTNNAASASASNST

PIM1 (human) [4] = biological target: PIM1 (human) (UniProt P11309); assay: SelectScreen, TR FRET
PIM2 (human) [5] = biological target: PIM2 (human) (UniProt Q9P1W9); assay: SelectScreen, TR FRET
MYO3B (human) = MYO3B (human) (UniProt Q8WXR4); assay: KINOMEscan competition binding; conditions: compound 10.0 µM

PIM1 (human), sequence (P11309 whole entry, looked up): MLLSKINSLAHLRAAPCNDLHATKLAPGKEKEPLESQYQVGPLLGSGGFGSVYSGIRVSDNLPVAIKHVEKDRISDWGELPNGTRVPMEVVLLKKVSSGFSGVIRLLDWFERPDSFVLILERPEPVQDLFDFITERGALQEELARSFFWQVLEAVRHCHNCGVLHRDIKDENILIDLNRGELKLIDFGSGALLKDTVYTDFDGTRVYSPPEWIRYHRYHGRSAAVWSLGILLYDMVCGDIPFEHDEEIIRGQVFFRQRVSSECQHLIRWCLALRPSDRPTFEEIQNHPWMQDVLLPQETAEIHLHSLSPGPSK

kinase still bound, per cent of control (PIM1 (human) [1]): 3.4%
kinase still bound, per cent of control (GSK3A (human)): 4.3%
kinase still bound, per cent of control (DAPK3 (human)): 14%
kinase still bound, per cent of control (CDK7 (human)): 15%
kinase still bound, per cent of control (DAPK2 (human)): 5.1%
kinase still bound, per cent of control (CLK4 (human)): 28%
kinase still bound, per cent of control (TGFBR2 (human)): 7.8%
kinase still bound, per cent of control (MAP2K3 (human)): 5.8%
kinase still bound, per cent of control [2]: 34%
kinase still bound, per cent of control (TAOK3 (human)): 6.6%
kinase still bound, per cent of control (TAOK1 (human)): 0.3%
kinase still bound, per cent of control (IKBKB (human)): 29%
kinase still bound, per cent of control (DAPK1 (human)): 15%
kinase still bound, per cent of control (CLK2 (human)): 16%
kinase still bound, per cent of control (CDK16 (human)): 9.4%
kinase still bound, per cent of control (PIM2 (human) [3]): 1.2%
kinase still bound, per cent of control (PIM3 (human)): 3.7%
kinase still bound, per cent of control (DYRK1B (human)): 33%
kinase still bound, per cent of control (STK17A (human)): 0.45%
kinase still bound, per cent of control (CHUK (human)): 27%
kinase still bound, per cent of control (CLK1 (human)): 26%
kinase still bound, per cent of control (STK17B (human)): 2.2%
kinase still bound, per cent of control (PLK4 (human)): 21%
kinase still bound, per cent of control (HIPK1 (human)): 0.2%
kinase still bound, per cent of control (GSK3B (human)): 30%
IC50 (PIM1 (human) [4]): 1750 nM
IC50 (PIM2 (human) [5]): 590 nM
SMILES: N=C1NC(=O)/C(=C/c2ccc(-c3ccc(F)cc3)o2)S1
kinase still bound, per cent of control (MAPK15 (human)): 0.95%

kinase still bound, per cent of control (PIM1 (human) [1]): 16%
kinase still bound, per cent of control (MAP2K3 (human)): 24%
kinase still bound, per cent of control (CDK16 (human)): 32%
kinase still bound, per cent of control (PIM2 (human) [3]): 6.2%
kinase still bound, per cent of control (PIM3 (human)): 13%
kinase still bound, per cent of control (MYO3B (human)): 2.9%
kinase still bound, per cent of control (HIPK1 (human)): 25%
SMILES: N=C1NC(=O)/C(=C/c2cccc(-c3ccc(S(N)(=O)=O)cc3)c2)S1
